# From BindingDB's records for doi:10.1016/s0960-894x(99)00005-0 (Smithkline Beecham Pharmaceuticals, 1999)
# Assay: Inhibitory activity against varicella zoster virus (VZV) protease
row,Compound,IC50
1,"Cc1csc2nc([C@H](C)NC(=O)/C=C/C(=O)c3ccccc3[N+](=O)[O-])oc(=O)c12 [(E)-4-(2-Nitro-phenyl)-4-oxo-but-2-enoic acid [(S)-1-(5-methyl-4-oxo-4H-thieno[2,3-d][1,3]oxazin-2-yl)-ethyl]-amide]",840 nM
2,"CCOc1ccc(C(=O)/C=C/C(=O)N[C@@H](C)c2nc3scc(C)c3c(=O)o2)cc1 [(E)-4-(4-Ethoxy-phenyl)-4-oxo-but-2-enoic acid [(S)-1-(5-methyl-4-oxo-4H-thieno[2,3-d][1,3]oxazin-2-yl)-ethyl]-amide]",1600 nM
3,"Cc1csc2nc([C@H](C)NC(=O)/C=C/C(=O)c3cccs3)oc(=O)c12 [(E)-4-Oxo-4-thiophen-2-yl-but-2-enoic acid [(S)-1-(5-methyl-4-oxo-4H-thieno[2,3-d][1,3]oxazin-2-yl)-ethyl]-amide]",650 nM
4,"CC(=O)C=CC(=O)N[C@@H](C)c1nc2scc(C)c2c(=O)o1 [(E)-4-Oxo-pent-2-enoic acid [(S)-1-(5-methyl-4-oxo-4H-thieno[2,3-d][1,3]oxazin-2-yl)-ethyl]-amide]",1360 nM
5,"Cc1csc2nc([C@H](C)NC(=O)CCC(=O)c3cccs3)oc(=O)c12 [N-[(S)-1-(5-Methyl-4-oxo-4H-thieno[2,3-d][1,3]oxazin-2-yl)-ethyl]-4-oxo-4-thiophen-2-yl-butyramide]",820 nM

# Now those with a lower IC50, led by results:
row,IC50,Compound
1,410 nM,"Cc1csc2nc([C@H](C)NC(=O)/C=C/C(=O)c3cccc(C#N)c3)oc(=O)c12 [(E)-4-(3-Cyano-phenyl)-4-oxo-but-2-enoic acid [(S)-1-(5-methyl-4-oxo-4H-thieno[2,3-d][1,3]oxazin-2-yl)-ethyl]-amide]"
2,340 nM,"COc1cccc(C(=O)/C=C/C(=O)N[C@@H](C)c2nc3scc(C)c3c(=O)o2)c1 [(E)-4-(3-Methoxy-phenyl)-4-oxo-but-2-enoic acid [(S)-1-(5-methyl-4-oxo-4H-thieno[2,3-d][1,3]oxazin-2-yl)-ethyl]-amide]"
